From patent US20250236608A1, “EGFR INHIBITORS” (Blueprint Medicines Corporation, priority 2022, published 2025)

Key:
[1] = target: EGFR L858R (Homo sapiens (Human), UniProt P00533, L858R); experiment: Biochemical EGFR inhibition assay, EGFR L858R; settings: Caliper mobility shift; 1.0 mM ATP or ATP Km; read-out: Enz EGFR_L858R IC50
[2] = target: EGFR (d746-750) (Homo sapiens (Human), UniProt P00533, DEL746-750); experiment: Biochemical EGFR inhibition assay, EGFR (d746-750); settings: Caliper mobility shift; 1.0 mM ATP or ATP Km; read-out: Enz EGFR_Exon19-del746-750 IC50
[3] = target: pEGFR (Tyr1068) in PC-9 cells (Ex19Del) (Homo sapiens (Human), UniProt P00533, DEL746-750); experiment: PC-9 pEGFR AlphaLISA assay; format: cell-based; settings: 4 hours incubation, p-EGFR (Tyr1068) AlphaLISA, read-out: Ext pEGFR_PC-9 Ex19Del IC50
How it was run: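 Phospho-EGFR (Tyr1068) was quantified by AlphaLISA SureFire Ultra in lysates of PC-9 cells exposed for 4 h to compound (4-fold, 10-point dilutions).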

Chain of EGFR (d746-750) (P00533 other isoform, or with tags, fused parts or gaps del 1-694/del 746-750 limits assumed): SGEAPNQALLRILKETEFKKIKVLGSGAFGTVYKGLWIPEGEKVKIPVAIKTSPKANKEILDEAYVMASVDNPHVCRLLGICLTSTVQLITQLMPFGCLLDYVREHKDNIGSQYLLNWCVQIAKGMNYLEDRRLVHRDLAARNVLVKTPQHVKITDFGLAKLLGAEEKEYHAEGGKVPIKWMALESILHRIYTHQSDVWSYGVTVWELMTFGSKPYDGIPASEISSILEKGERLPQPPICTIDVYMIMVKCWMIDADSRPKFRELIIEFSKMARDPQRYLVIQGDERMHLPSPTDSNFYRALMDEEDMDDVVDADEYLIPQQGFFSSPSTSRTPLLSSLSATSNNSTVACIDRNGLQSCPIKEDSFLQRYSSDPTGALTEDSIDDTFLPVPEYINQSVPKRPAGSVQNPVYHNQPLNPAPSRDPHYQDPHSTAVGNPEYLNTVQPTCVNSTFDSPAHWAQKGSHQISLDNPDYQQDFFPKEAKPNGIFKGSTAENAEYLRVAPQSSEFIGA
Chain of pEGFR (Tyr1068) in PC-9 cells (Ex19Del) (P00533 other isoform, or with tags, fused parts or gaps del 746-750): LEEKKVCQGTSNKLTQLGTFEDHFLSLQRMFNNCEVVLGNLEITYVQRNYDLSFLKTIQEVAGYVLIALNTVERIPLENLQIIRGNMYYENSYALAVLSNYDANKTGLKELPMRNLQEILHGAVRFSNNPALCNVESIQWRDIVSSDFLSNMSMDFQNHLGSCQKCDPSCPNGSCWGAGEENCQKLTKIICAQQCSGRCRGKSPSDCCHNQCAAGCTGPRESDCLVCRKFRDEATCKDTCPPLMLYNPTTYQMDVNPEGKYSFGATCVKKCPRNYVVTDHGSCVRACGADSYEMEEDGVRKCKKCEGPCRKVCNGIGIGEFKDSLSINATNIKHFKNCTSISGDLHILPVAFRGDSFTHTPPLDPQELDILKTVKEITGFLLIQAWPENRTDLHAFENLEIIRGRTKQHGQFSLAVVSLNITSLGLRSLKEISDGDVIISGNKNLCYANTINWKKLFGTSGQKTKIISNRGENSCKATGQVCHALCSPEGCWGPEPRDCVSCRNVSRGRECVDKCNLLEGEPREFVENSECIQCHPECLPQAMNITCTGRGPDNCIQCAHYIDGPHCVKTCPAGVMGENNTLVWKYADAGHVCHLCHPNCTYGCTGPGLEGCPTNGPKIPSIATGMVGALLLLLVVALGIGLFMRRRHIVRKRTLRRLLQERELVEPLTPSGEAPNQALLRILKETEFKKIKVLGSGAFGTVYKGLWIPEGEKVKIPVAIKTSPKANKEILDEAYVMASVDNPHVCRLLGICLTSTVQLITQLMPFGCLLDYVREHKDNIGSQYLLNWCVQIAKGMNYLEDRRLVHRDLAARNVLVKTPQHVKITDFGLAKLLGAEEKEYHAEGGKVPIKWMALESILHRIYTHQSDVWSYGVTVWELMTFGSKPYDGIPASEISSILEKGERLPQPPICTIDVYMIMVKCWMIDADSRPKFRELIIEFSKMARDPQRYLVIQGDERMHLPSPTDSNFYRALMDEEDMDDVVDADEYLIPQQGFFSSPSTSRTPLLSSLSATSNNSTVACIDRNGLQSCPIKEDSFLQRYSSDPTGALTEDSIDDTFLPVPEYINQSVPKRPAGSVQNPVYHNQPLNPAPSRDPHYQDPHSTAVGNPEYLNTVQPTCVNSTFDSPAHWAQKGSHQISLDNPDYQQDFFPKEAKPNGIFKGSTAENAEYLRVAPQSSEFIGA
Chain of EGFR L858R (P00533 25-1210 L858R): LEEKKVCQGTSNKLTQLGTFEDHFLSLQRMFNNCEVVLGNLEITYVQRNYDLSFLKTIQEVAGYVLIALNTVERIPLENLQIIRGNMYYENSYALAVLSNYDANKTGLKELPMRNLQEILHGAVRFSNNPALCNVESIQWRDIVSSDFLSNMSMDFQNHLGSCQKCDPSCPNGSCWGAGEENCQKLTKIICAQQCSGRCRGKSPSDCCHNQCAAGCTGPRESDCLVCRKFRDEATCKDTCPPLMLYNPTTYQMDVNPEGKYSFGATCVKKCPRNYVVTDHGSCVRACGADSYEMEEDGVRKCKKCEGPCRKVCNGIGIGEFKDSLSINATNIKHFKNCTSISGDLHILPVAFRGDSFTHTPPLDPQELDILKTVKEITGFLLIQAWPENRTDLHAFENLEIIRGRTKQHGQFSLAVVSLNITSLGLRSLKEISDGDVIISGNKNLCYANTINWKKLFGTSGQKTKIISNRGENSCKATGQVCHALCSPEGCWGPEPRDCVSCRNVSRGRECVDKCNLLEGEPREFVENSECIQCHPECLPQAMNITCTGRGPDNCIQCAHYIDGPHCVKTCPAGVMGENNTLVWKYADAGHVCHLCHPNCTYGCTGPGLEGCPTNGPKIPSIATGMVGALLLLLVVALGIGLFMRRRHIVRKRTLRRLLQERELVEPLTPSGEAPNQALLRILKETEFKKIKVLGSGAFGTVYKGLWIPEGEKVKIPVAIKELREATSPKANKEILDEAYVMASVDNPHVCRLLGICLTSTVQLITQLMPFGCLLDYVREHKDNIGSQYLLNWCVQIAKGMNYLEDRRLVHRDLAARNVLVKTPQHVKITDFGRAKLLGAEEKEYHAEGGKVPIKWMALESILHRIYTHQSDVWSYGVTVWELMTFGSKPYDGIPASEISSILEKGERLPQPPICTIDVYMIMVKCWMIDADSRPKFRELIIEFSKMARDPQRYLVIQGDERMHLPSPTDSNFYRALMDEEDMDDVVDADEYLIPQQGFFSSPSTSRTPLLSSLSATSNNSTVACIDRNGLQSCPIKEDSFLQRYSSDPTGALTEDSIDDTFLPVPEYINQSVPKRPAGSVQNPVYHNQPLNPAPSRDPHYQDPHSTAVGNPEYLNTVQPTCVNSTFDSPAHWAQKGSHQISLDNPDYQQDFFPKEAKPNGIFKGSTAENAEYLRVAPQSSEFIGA

Row | IC50 [1] [nM] | IC50 [2] [nM] | IC50 [3] [nM] | SMILES
1 | 12.8 | 1.1 | 2.7 | COc1cc2ncnc(-c3cn(C)nc3-c3ccccc3)c2nc1O[C@H](C)c1ncsc1C (single isomer, unassigned) [Example 53, (R)-4-(1-((7-methoxy-4-(1-methyl-3-phenyl-1H-pyrazol-4-yl)pyrido[3,2-d]pyrimidin-6-yl)oxy)ethyl)-5-methylthiazole or (S)-4-(1-((7-methoxy-4-(1-methyl-3-phenyl-1H-pyrazol-4-yl)pyrido[3,2-d]pyrimidin-6-yl)oxy)ethyl)-5-methylthiazole]
2 | 1.5 | 1 | 0.6 | COc1cc2ncnc(-c3cn(CC(F)F)nc3-c3ccccc3)c2cc1NC(=O)c1scnc1C [Example 273, N-(4-(1-(2,2-difluoroethyl)-3-phenyl-1H-pyrazol-4-yl)-7-methoxyquinazolin-6-yl)-4-methylthiazole-5-carboxamide]
3 | 26 | 4.5 | 23.8 | Cn1cc(-c2ncnc3cc(OC(F)F)c(NC(=O)c4ccc(C5CC5)nc4)nc23)c(-c2ccccc2)n1 [Example 470, 6-cyclopropyl-N-[7-(difluoromethoxy)-4-(1-methyl-3-phenyl-1H-pyrazol-4-yl)pyrido[3,2-d]pyrimidin-6-yl]pyridine-3-carboxamide]
4 | 1.9 | 0.9 | 2.5 | COc1cc2ncnc(-c3cn(C)nc3-c3ccccc3)c2nc1NC(=O)[C@]12COC[C@H]1C2 (single isomer, unassigned) [Example 432, (1S,5S)—N-(7-methoxy-4-(1-methyl-3-phenyl-1H-pyrazol-4-yl)pyrido[3,2-d]pyrimidin-6-yl)-3-oxabicyclo[3.1.0]hexane-1-carboxamide or (1R,5R)—N-(7-methoxy-4-(1-methyl-3-phenyl-1H-pyrazol-4-yl)pyrido[3,2-d]pyrimidin-6-yl)-3-oxabicyclo[3.1.0]hexane-1-carboxamide]
5 | 1.3 | 0.9 | 2.7 | CCOc1cc2ncnc(-c3cn(CC)nc3-c3ccccc3)c2cc1[C@@H](C)O (single isomer, unassigned) [Example 108, (R)-1-(7-ethoxy-4-(1-ethyl-3-phenyl-1H-pyrazol-4-yl)quinazolin-6-yl)ethan-1-ol or (S)-1-(7-ethoxy-4-(1-ethyl-3-phenyl-1H-pyrazol-4-yl)quinazolin-6-yl)ethan-1-ol]
6 | 1.5 | 1 | 4.9 | COc1cc2ncnc(-c3sc(C)nc3-c3ccccc3)c2cc1NC(=O)C1CC1 [Example 266, N-(7-methoxy-4-(2-methyl-4-phenylthiazol-5-yl)quinazolin-6-yl)cyclopropanecarboxamide]
7 | 6.4 | 0.7 | 0.4 | CCn1cc(-c2ncnc3cc(OC)c(NC(=O)[C@@]45COC[C@@H]4C5)nc23)c(-c2ccccc2)n1 (single isomer, unassigned) [Example 389, (1R,5R)—N-(4-(1-ethyl-3-phenyl-1H-pyrazol-4-yl)-7-methoxypyrido[3,2-d]pyrimidin-6-yl)-3-oxabicyclo[3.1.0]hexane-1-carboxamide or (1S,5S)—N-(4-(1-ethyl-3-phenyl-1H-pyrazol-4-yl)-7-methoxypyrido[3,2-d]pyrimidin-6-yl)-3-oxabicyclo[3.1.0]hexane-1-carboxamide]
8 | 1.3 | 0.7 | 0.9 | COc1cc2ncnc(-c3cn(C)nc3-c3ccccc3)c2nc1NC(=O)C1(C(F)F)CC1 [Example 369, 1-(difluoromethyl)-N-(7-methoxy-4-(1-methyl-3-phenyl-1H-pyrazol-4-yl)pyrido[3,2-d]pyrimidin-6-yl)cyclopropane-1-carboxamide]
9 | 1.4 | 0.9 | 1.3 | COc1cc2ncnc(-c3cn(C)nc3-c3ccccc3)c2cc1NC(=O)c1cccc(C)n1 [Example 329, N-(7-methoxy-4-(1-methyl-3-phenyl-1H-pyrazol-4-yl)quinazolin-6-yl)-6-methylpicolinamide]
10 | 3.5 | 2.1 | 5.3 | COc1cc2ncnc(-c3cn(C)nc3-c3ccccc3)c2nc1O[C@@H](C)c1cocn1 [Example 39, (S)-4-(1-((7-methoxy-4-(1-methyl-3-phenyl-1H-pyrazol-4-yl)pyrido[3,2-d]pyrimidin-6-yl)oxy)ethyl) oxazole]
11 | 4.5 | 1.7 | 5.7 | COc1cc2ncnc(-c3cn(C)nc3-c3ccccc3)c2nc1NC(=O)C1(C(F)(F)F)CCOCC1 [Example 383, N-(7-methoxy-4-(1-methyl-3-phenyl-1H-pyrazol-4-yl)pyrido[3,2-d]pyrimidin-6-yl)-4-(trifluoromethyl)tetrahydro-2H-pyran-4-carboxamide]
12 | 3.3 | 1.3 | 6.5 | CCn1cc(-c2ncnc3cc(OC)c([C@H](C)O)cc23)c(-c2ccccc2)n1 (single isomer, unassigned) [Example 105, (S)-1-(4-(1-ethyl-3-phenyl-1H-pyrazol-4-yl)-7-methoxyquinazolin-6-yl)ethan-1-ol or (R)-1-(4-(1-ethyl-3-phenyl-1H-pyrazol-4-yl)-7-methoxyquinazolin-6-yl)ethan-1-ol]
13 | 2.9 | 0.8 | 7.3 | COCc1cc2c(-c3cn(C)nc3-c3ccccc3)ncnc2cc1OC [Example 120, 7-methoxy-6-(methoxymethyl)-4-(1-methyl-3-phenyl-1H-pyrazol-4-yl)quinazoline]
14 | 2.4 | 1.2 | 0.6 | COc1cc2ncnc(-c3cn(C)nc3-c3ccccc3)c2cc1NC(=O)C1CCC1 [Example 347, N-(7-methoxy-4-(1-methyl-3-phenyl-1H-pyrazol-4-yl)quinazolin-6-yl)cyclobutanecarboxamide]
15 | 3.9 | 2.4 | 14.6 | COc1cc2ncnc(-c3cn(C)nc3-c3ccccc3)c2nc1O[C@@H](C)c1cn(C)nn1 [Example 44, (S)-7-methoxy-6-(1-(1-methyl-1H-1,2,3-triazol-4-yl)ethoxy)-4-(1-methyl-3-phenyl-1H-pyrazol-4-yl)pyrido[3,2-d]pyrimidine]
16 | 6.9 | 2.7 | 9.3 | COc1cc2ncnc(-c3cn(C)nc3-c3ccccc3)c2nc1NC(=O)[C@@]1(C(F)(F)F)CCN(C)C1 (single isomer, unassigned) [Example 394, (R)—N-(7-methoxy-4-(1-methyl-3-phenyl-1H-pyrazol-4-yl)pyrido[3,2-d]pyrimidin-6-yl)-1-methyl-3-(trifluoromethyl) pyrrolidine-3-carboxamide or (S)—N-(7-methoxy-4-(1-methyl-3-phenyl-1H-pyrazol-4-yl)pyrido[3,2-d]pyrimidin-6-yl)-1-methyl-3-(trifluoromethyl) pyrrolidine-3-carboxamide]
17 | 1.3 | 0.6 | 3.3 | CCOc1cc2ncnc(-c3cn(CC)nc3-c3ccccc3)c2cc1[C@H](C)O (single isomer, unassigned) [Example 107, (S)-1-(7-ethoxy-4-(1-ethyl-3-phenyl-1H-pyrazol-4-yl)quinazolin-6-yl)ethan-1-ol or (R)-1-(7-ethoxy-4-(1-ethyl-3-phenyl-1H-pyrazol-4-yl)quinazolin-6-yl)ethan-1-ol]
